Patent US11066379B2 (THE TEXAS A&M UNIVERSITY SYSTEM, priority 2018, dated 2021)

How the values were obtained:
[1] = test system: SH-SY5Y cells; assay: Neuroprotection against H2O2 toxicity, cell viability by MTT; assay type: cell-based, human; details: 150 μM H2O2 co-treatment 6 h; 0.01, 0.1 and 1 μM
Method: (§1) SH-SY5Y cells were seeded in 96-well plates at a density of 2.5×10^5 cells/mL and allowed to adhere for 24 h. At first, cells were treated only with compounds at concentrations ranging from 10-0.01 μM for 24 h to determine their possible cytotoxic effects. Experiments were carried out three times. For neuroprotective experiments, cells were treated with compounds at non-toxic concentrations (1 μM→1 nM) and 150 μM H2O2 for 6 h. Briefly, cells were washed three times with saline solution and 200 μL of MTT (500 μg/mL) dissolved in saline buffer were added to each well. Following 1 h of incubation at 37° C., the cells were disaggregated with sodium dodecyl sulphate at 5%. Absorbance of formazan crystals was measured at 595 nm with a spectrophotometer plate reader. Saponin was used as death control and its absorbance was subtracted from the other data. All experiments were performed four times.

[2] = test system: SH-SY5Y cells; assay: Cellular toxicity in SH-SY5Y cells (MTT, 24 h); assay type: cell-based; details: SH-SY5Y, 24 h incubation; read-out: IC50 (cellular toxicity)
Description: (§2) The MTT (3-[4,5-dimethylthiazol-2-yl]-2,5-diphenyltetrazoliumbromide) assay was used to determine the cytotoxicity of gracilin derivatives in T lymphocytes (Burton, J. D. Methods Mol. Med., 2005, 110, 69-78) and SH-SY5Y cells and the protective effect of these compounds against H2O2 insult in neuroblastoma cells as previously described (Leiros, M., Alonso, E., Sanchez, J. A., Rateb, M. E., Ebel, R., Houssen, W. E., Jaspars, M., Alfonso, A. and Botana, L. M. ACS Chem. Neurosci., 2014, S, 71-80). Human T lymphocytes were cultured in 24 well plates at the concentration of 2.5×10^6 cells/mL and exposed to different compound concentrations (0.01, 0.1, 1 and 10 μM) added to the culture medium. Human T cells were maintained in the presence of the pure compound at 37° C. in humidified 5% CO2/95% air atmosphere for 48 h.
as §1, with “5%.” for “5%. Absorbance of formazan crystals was measured at 595 nm with a spectrophotometer plate reader. Saponin was used as death control and its absorbance was subtracted from the other data. All experiments were performed four times.”
Absorbance of formazan crystals was measured at 595 nm with a spectrophotometer plate reader. Saponin was used as death control and its absorbance was subtracted from the other data. All experiments were performed four times.

[3] = target: T1, active human CypA protein (Homo sapiens, UniProt P62937); assay: Binding to immobilized CypA by surface plasmon resonance (SPR); details: for fold increase in KD toward CypA compared to gracilin A / affinity for CypA (association curves, KD): SPR; for affinity for CypA (association curves, KD): various concentrations; for affinity for CypA (association curves, KD) / immunosuppressive activity (SAR profile, FIG. 2): in words; for immunosuppressive activity (SAR profile, FIG. 2): CypA binding / IL-2 inhibition
T1 construct: Active human CypA full-length protein was from Abcam; purchased Abcam
Method: Sensor surface activation and ligand immobilization were performed by using HBS-EP as running buffer at a flow rate of 5 μL/min and 25° C. CM5 sensor chips were used as surface where Cyp A or D was immobilized as ligand. The CM5 chip is a glass slide coated with a thin layer of gold with a matrix of carboxymethylated dextran covalently attached. The CM5 chip was activated using an amine coupling kit. […] After activation, the ligand, 100 μg/mL of active human CypA protein dissolved in sodium acetate 10 mM at pH 4.5 was added to be immobilized over a CM5 sensor chip. Finally ethanolamine-HCl was injected to deactivate the remaining active esters and to avoid non-specific binding. […] Once analytes were tested and interaction was observed, individual binding curves were analyzed by determining the kinetic constants of analytes-CypA binding, namely, the observed rate constant (Kobs), the association rate constant (Kass), the dissociation rate constant (Kdiss), and the kinetic equilibrium dissociation constant (KD). At equilibrium, by definition, […]. The pseudo-first order association rate constants Kobs (s^-1) were determined for each compound concentration by using the 1:1 Langmuir association model of BiaEvaluation software (BiaCore, Uppsala, Sweden). Then a representation of Kobs against the corresponding concentration of each compound was done. […] From the equation of these representations, Kass, M^-1 s^-1, gradient of the plot, and […]^-1, intercept of the plot was obtained. Within these two values, the kinetic equilibrium dissociation constant KD for each analyte-CypA binding was obtained. The duration of the sample injection was 2 min at 10 μL/min flow rate. Next, dissociation of bound molecules in HBS-EP buffer flow was studied. The bound drugs were removed from the chip surface before the next injection by adding 1 M Glycine-HCl at pH 2.5 for 1 min. The association phase was used to quantify the compound-CypA or D interactions. All experiments were performed four times.

[4] = test system: human T lymphocytes; assay: Viability of human T lymphocytes (MTT assay, 48 h); assay type: cell-based; details: for cell toxicity to T-cells: 0.1 μM, in words
Description: as §2
Saponin was used as cellular death control and its absorbance was subtracted from the other data. After the incubation period with compounds, assay was performed. First cells were centrifuged (1500 rpm, 5 min, 4° C.). The pellets were resuspended in saline solution with MTT (250 μg/mL) and then incubated at 37° C. during 30 min. After washing off excess MTT twice with saline solution, cells were disaggregated with H2O and sonicated for 1 min and the absorbance of the colored formazan salt was measured at 595 nm in a spectrophotometer plate reader. All experiments were performed three times.

[5] = test system: SH-SY5Y cells; assay: Intracellular ROS levels (carboxy-H2DCFDA) after H2O2; assay type: cell-based, human; details: 150 μM H2O2 co-treatment 6 h
Method: Intracellular levels of reactive oxygen species (ROS) were determined with carboxy-H2DCFDA (5-(and-6)-carboxy-2′,7′-dichlorodihydrofluorescein diacetate). This dye diffuses through the cellular membrane and is converted by cellular esterases to carboxy-H2DCFH (non-fluorescent). When carboxy-H2DCFH is oxidized by ROS, it becomes fluorescent (Halliwell, B. and Whiteman, M. Br. J. Pharmacol., 2004, 142, 231-255). Cells were seeded at a density of 2.5×10^5 cells/mL in 96-well plates and allowed to attach for 24 h. Following treatment with compounds at various concentrations (1 μM→1 nM) and 150 μM H2O2 for 6 h, SH-SY5Y cells were washed twice with serum-free culture medium. Then, carboxy-H2DCFDA 20 μM dissolved in serum-free culture medium was added to each well and the cells were incubated for 1 h at 37° C. After this incubation, the medium with the fluorescent dye was replaced with PBS and the plate was incubated for 30 min at 37° C. Fluorescence was read at 527 nm, with an excitation wavelength of 495 nm. All experiments were performed four times.

[6] = test system: Interleukin-2 (IL-2) production in human T lymphocytes; assay: Interleukin-2 release in Con A-stimulated human T lymphocytes (ELISA); assay type: cell-based
Method: Then, cells were stimulated with Concanavalin A (Con A) at 50 μg/mL for 48 h to induce IL-2 release. The amount of IL-2 released to the culture medium was evaluated using Human IL-2 ELISA kit. Experiments were carried out four times.

T1 sequence (P62937 whole entry): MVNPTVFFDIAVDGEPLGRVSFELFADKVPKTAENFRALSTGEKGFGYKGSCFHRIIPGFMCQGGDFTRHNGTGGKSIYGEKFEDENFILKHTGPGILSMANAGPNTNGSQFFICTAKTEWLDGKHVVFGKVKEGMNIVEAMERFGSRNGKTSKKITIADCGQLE

## (1S,3R,3aS,7aR)-5-((S)-1,3,3-trimethylcyclohexyl)-1,3,3a,4,7,7a-hexahydroisoben-zofuran-1,3-diyl diacetate [Compound 23a]
[1]
  protection of cell viability against H2O2 insult: protected cells against H2O2 insult at almost all concentrations
[2]
  IC50: 1400 nM
[3]
  fold increase in KD toward CypA compared to gracilin A: ~1000 fold
[4]
  decrease in cell viability: ~10%
[5]
  ROS levels: diminishing ROS at two or three concentrations

## CC(=O)O[C@H]1O[C@@H](OC(C)=O)[C@@H]2CCC(=O)C[C@H]12 [Compound 17, (1S,3R,3aS,7aR)-5-oxooctahydroisobenzofuran-1,3-diyl diacetate]
[3]
  affinity for CypA (association curves, KD): no affinity
[4]
  cell toxicity to T-cells: did not show signs of cell toxicity
[6]; in words
  Inhibition of IL-2 production: did not inhibit IL-2 production

## (0R,3S,3aR,7aS)-6-((R)-1,3,3-trimethyl-cyclohexyl)-1,3,3a,4,5,7a-hexahydroisobenzofuran-1,3-diyl diacetate [Compound 23d]
[2]
  IC50: 1400 nM
[3]
  fold increase in KD toward CypA compared to gracilin A: ~1000 fold
[4]
  impact on T-cell viability: no impact on cell viability
[6]; 2 h pre-treatment at non-toxic concentration, Con A 50 μg/mL 48 h
  Inhibition of IL-2 production: 46%

## CC(=O)O[C@@H]1OC[C@H]2CC(=O)CC[C@H]21 [Compound 24, (1S,3aS,7aR)-5-oxooctahydroisobenzofuran-1-yl acetate]
[3]
  immunosuppressive activity (SAR profile, FIG. 2): inactive

## CC1(C2=C[C@@H]3COC(=O)[C@@H]3CC2)CCCCC1 [Compound 26, (3aS,7aR)-5-(1-methylcyclohexyl)-3a,6,7,7a-tetrahydroisobenzofuran-1(3H)-one]
[3]
  immunosuppressive activity (SAR profile, FIG. 2): inactive

## CC(=O)OC1OC(OC(C)=O)[C@@H]2CCC=C[C@H]12 (stereo partly drawn) [Compound 18, (3aR,7aS)-1,3,3a,4,5,7a-hexahydroisobenzofuran-1,3-diyl diacetate]
[3]
  affinity for CypA (association curves, KD): no affinity
[4]
  cell toxicity to T-cells: did not show signs of cell toxicity
[6]; in words
  Inhibition of IL-2 production: did not inhibit IL-2 production

## CC(=O)OC1CCC(OC(C)=O)O1 (mixture of isomers) [(±)-9, cis- and trans-2,5-tetrahydrofuran-2,5-diyl diacetate]
[3]
  affinity for CypA (association curves, KD): no affinity
[4]
  cell toxicity to T-cells: did not show signs of cell toxicity
[6]; in words
  Inhibition of IL-2 production: did not inhibit IL-2 production
